Data reported in US8124627B2, “Biphenyl compounds useful as muscarinic receptor antagonists” (Theravance, Inc., priority 2005, dated 2012).
Where a name gives a salt, the structure may show the parent alone.

Experiments:
[1] = target: T1, M3 muscarinic receptor subtype (Homo sapiens, UniProt P20309); assay: Radioligand binding assay ([3H]-NMS displacement, CHO cell membranes); details: tested in this or a similar assay
T1 construct: expressed in transfected cells; crude membranes prepared in house
Experimental: CHO cell lines stably expressing cloned human hM1, hM2, hM3 and hM4 muscarinic receptor subtypes, respectively, were grown to near confluency in medium consisting of HAM's F-12 supplemented with 10% FBS and […]. The cells were grown in a 5% CO2, 37° C. incubator and lifted with 2 mM EDTA in dPBS. Cells were collected by 5 minute centrifugation at 650×g, and cell pellets were either stored frozen at −80° C. or membranes were prepared immediately. For membrane preparation, cell pellets were resuspended in lysis buffer and homogenized with a Polytron PT-2100 tissue disrupter (Kinematica AG; 20 seconds×2 bursts). Crude membranes were centrifuged at 40,000×g for 15 minutes at 4° C. […] The protein concentration of the membrane suspension was determined by the method described in Lowry, O. et al., […] 193:265 (1951). […]
Radioligand binding assays were performed in 96-well microtiter plates in a total assay volume of 100 μL. […] Filter plates were rinsed three times with wash buffer (10 mM HEPES) to remove unbound radioactivity. […] The plates were then counted in a PerkinElmer Topcount liquid scintillation counter (PerkinElmer Inc., Wellesley, Mass.). Binding data were analyzed by nonlinear regression analysis with the GraphPad Prism Software package (GraphPad Software, Inc., San Diego, Calif.) using the one-site competition model. […]

[2] = Differential scanning calorimetry (DSC), thermal decomposition; assay type: physicochemical; details: heating ramp 10° C./min
Experimental: DSC was performed using a TA Instruments Model Q-10 module with a Thermal Analyst controller, and data were collected and analyzed using TA Instruments Thermal Solutions software. A sample of about 1 mg of the crystalline diacetate salt was accurately weighed into an aluminum pan with lid, and evaluated using a linear heating ramp of 10° C./min from ambient temperature to approximately 300° C. The DSC cell was purged with dry nitrogen during use. A representative DSC trace for this salt is shown in FIG. 2 and depicts one transition at about 114° C., no thermal decomposition below about 160° C., and maximum endothermic heat flow at about 112° C.

[3] = Dynamic moisture sorption (DMS) assessment; assay type: physicochemical; details: exposed to up to 90% RH
Experimental: A dynamic moisture sorption (DMS) assessment (also known as a moisture sorption-desorption profile) was performed for samples of the crystalline diacetate salt using a VTI atmospheric microbalance, SGA-100 system (VTI Corp., Hialeah, Fla. 33016). A sample size of approximately 10 mg was used and the humidity was set at the ambient value at the start of the analysis. A typical DMS analysis consisted of three scans: ambient to 2% relative humidity (RH), 2% RH to 90% RH, 90% RH to 5% RH at a scan rate of 5% RH/step. The mass was measured every two minutes and the RH was changed to the next value (+/−5% RH) when the mass of the sample was stable to within 0.01% for 5 consecutive points.

T1 sequence (P20309 whole entry): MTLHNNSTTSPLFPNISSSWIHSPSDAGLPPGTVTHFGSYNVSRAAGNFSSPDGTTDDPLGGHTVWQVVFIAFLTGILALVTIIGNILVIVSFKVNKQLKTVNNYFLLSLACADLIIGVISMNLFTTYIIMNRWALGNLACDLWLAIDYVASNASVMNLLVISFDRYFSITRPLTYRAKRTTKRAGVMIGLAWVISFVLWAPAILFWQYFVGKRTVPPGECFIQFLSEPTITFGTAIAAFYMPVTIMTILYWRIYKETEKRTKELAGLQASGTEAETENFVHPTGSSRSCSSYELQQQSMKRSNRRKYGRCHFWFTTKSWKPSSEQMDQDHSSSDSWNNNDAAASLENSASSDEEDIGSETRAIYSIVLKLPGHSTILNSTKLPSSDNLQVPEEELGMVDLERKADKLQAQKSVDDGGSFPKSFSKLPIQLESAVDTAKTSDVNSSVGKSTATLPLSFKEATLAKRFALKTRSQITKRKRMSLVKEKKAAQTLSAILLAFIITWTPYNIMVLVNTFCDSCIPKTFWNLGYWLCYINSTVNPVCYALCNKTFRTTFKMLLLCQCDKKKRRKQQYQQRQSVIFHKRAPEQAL

## CN(CCN1CCC(OC(=O)Nc2ccccc2-c2ccccc2)CC1)C(=O)c1cccc(C(=O)NCCNCc2ccc(O)cc2)c1 [Example 1, Biphenyl-2-ylcarbamic Acid 1-[2-({3-[2-(4-Hydroxybenzylamino)ethylcarbamoyl]benzoyl}methylamino)ethyl]piperidin-4-yl Ester]
[1]
  Ki: < 5 nM

## CN(CCN1CCC(OC(=O)Nc2ccccc2-c2ccccc2)CC1)C(=O)c1cccc(C(=O)NCCNCc2ccc(O)cc2)c1 [crystalline diacetate salt, biphenyl-2-ylcarbamic acid 1-[2-({3-[2-(4-hydroxybenzylamino)ethylcarbamoyl]benzoyl}methylamino)ethyl]piperidin-4-yl ester]
[2]
  no thermal decomposition below (DSC trace): ≥ 160 °C
[3]
  weight gain in DMS (reversible sorption/desorption profile): less than 18%

## CN(CCN1CCC(OC(=O)Nc2ccccc2-c2ccccc2)CC1)C(=O)c1cccc(C(=O)NCCNCc2ccc(O)cc2)c1 [crystalline dipropionate salt, Biphenyl-2-ylcarbamic Acid 1-[2-({3-[2-(4-Hydroxybenzylamino)ethylcarbamoyl]benzoyl}methylamino)ethyl]piperidin-4-yl Ester]
[2]
  no thermal decomposition below (DSC trace): ≥ 150 °C
[3]
  weight gain in DMS (reversible sorption/desorption profile): less than 11%

## CN(CCN1CCC(OC(=O)Nc2ccccc2-c2ccccc2)CC1)C(=O)c1cccc(C(=O)NCCNCc2ccc(O)cc2)c1 [crystalline monooxalate salt, Biphenyl-2-ylcarbamic Acid 1-[2-({3-[2-(4-Hydroxybenzylamino)ethylcarbamoyl]benzoyl}methylamino)ethyl]piperidin-4-yl Ester]
[2]
  no thermal decomposition below (DSC trace): ≥ 150 °C
[3]
  weight gain in DMS (reversible sorption/desorption profile): less than 14%
